Reference: PubChem BioAssay (NCI)
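48-hour exposure; five concentrations; linearly interpolated endpoints. Here, GI50 denotes the concentration required for 50% inhibition of growth. TGI denotes the concentration required for complete inhibition of growth.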

Tests used:
Experiment in all cases: NCI tumour cell line growth inhibition, 48 h
HCT-15 colon = tested on: HCT-15 colon
HOP-92 NSCLC = tested on: HOP-92 NSCLC
OVCAR-8 ovarian = tested on: OVCAR-8 ovarian
RPMI-8226 leukemia = tested on: RPMI-8226 leukemia
RXF 393 renal = tested on: RXF 393 renal
SK-MEL-2 melanoma = tested on: SK-MEL-2 melanoma
SN12C renal = tested on: SN12C renal
SW-620 colon = tested on: SW-620 colon
TK-10 renal = tested on: TK-10 renal
UACC-257 melanoma = tested on: UACC-257 melanoma

Row | Structure (SMILES) | GI50 (HCT-15 colon) | TGI (HCT-15 colon) | GI50 (HOP-92 NSCLC) | TGI (HOP-92 NSCLC) | GI50 (OVCAR-8 ovarian) | TGI (OVCAR-8 ovarian) | GI50 (RPMI-8226 leukemia) | TGI (RPMI-8226 leukemia) | GI50 (RXF 393 renal) | TGI (RXF 393 renal) | GI50 (SK-MEL-2 melanoma) | TGI (SK-MEL-2 melanoma) | GI50 (SN12C renal) | TGI (SN12C renal) | GI50 (SW-620 colon) | TGI (SW-620 colon) | GI50 (TK-10 renal) | TGI (TK-10 renal) | GI50 (UACC-257 melanoma) | TGI (UACC-257 melanoma)
1 | CCOc1cc(/C=C/C(=O)C(C(=O)/C=C/c2ccc(OC(=O)CNc3nnc(C)s3)c(OCC)c2)C(=O)CNc2nnc(C)s2)ccc1OC(=O)CNc1nnc(C)s1 | 2160 nM | 5.85 µM | 2130 nM | 6.6 µM | 3.43 µM | 14.4 µM | 340 nM | > 100 µM | 1550 nM | 4.85 µM | 2020 nM | 5 µM | 1860 nM | 6.4 µM | 1180 nM | 2.74 µM | 3.49 µM | 14.4 µM | 2810 nM | 9.54 µM
2 | CS(=N)(=O)CCC(N)P(=O)(O)O (stereo not given) | – | > 100 µM | – | > 100 µM | – | > 100 µM | – | > 100 µM | – | > 100 µM | – | > 100 µM | – | > 100 µM | – | > 100 µM | – | > 100 µM | – | > 100 µM
3 | CC(=O)N(CCN1C(=O)c2ccccc2C1=O)CCN1C(=O)c2ccccc2C1=O | – | > 100 µM | – | > 100 µM | – | > 100 µM | – | > 100 µM | – | > 100 µM | – | > 100 µM | – | > 100 µM | – | > 100 µM | – | > 100 µM | – | > 100 µM
4 | NC1=NC2=C(CCCC2)C(c2cccs2)S1 (stereo not given) | – | > 100 µM | – | > 100 µM | – | > 100 µM | – | > 100 µM | – | > 100 µM | – | > 100 µM | – | > 100 µM | – | > 100 µM | – | > 100 µM | – | > 100 µM
5 | CC(=O)CC(=O)NC=O | – | > 100 µM | – | > 100 µM | – | > 100 µM | – | > 100 µM | – | > 100 µM | – | > 100 µM | – | > 100 µM | – | > 100 µM | – | > 100 µM | – | > 100 µM
6 | CCCOc1ccc(/C=N/Nc2cc(C)nc3ccc(Cl)cc23)cc1 | 1520 nM | 2.94 µM | 1510 nM | 3.11 µM | 2.31 µM | 4.53 µM | 1810 nM | 3.99 µM | 1550 nM | 2.94 µM | 1730 nM | 3.22 µM | 1820 nM | 3.31 µM | 1960 nM | 3.79 µM | 2.04 µM | 3.47 µM | 1790 nM | 3.32 µM
7 | O=C(Nc1ccc(I)cc1)c1cccc([N+](=O)[O-])c1O | 3360 nM | 40.9 µM | 373 nM | 3.22 µM | 4.37 µM | > 100 µM | 1660 nM | 6.73 µM | 2490 nM | 9.09 µM | 2600 nM | 8.79 µM | 3540 nM | > 100 µM | 4440 nM | > 100 µM | 3.56 µM | > 100 µM | 2960 nM | 8.57 µM
8 | CN(C)c1ccc(/C=c2\sc3nnc(-c4cccnc4)n3c2=O)cc1 | – | > 100 µM | – | > 100 µM | – | > 100 µM | – | > 100 µM | – | > 100 µM | – | > 100 µM | – | > 100 µM | – | > 100 µM | – | > 100 µM | – | > 100 µM
